Measured values taken from US6156700A, “3-(1,2-Benzisothiazol- and isoxazol-5-yl)-2,4(1H,3H)-pyrimidinedione or thione and 3-(1,2-benzisothiazol- and isoxazol-5-yl)-4(3H)-pyrimidinone or thione herbicidal agents” (American Cyanmid Company, priority 1998, dated 2000).

Experiments:
[1] = system: Velvetleaf, Abutilon theophrasti; assay: Preemergence herbicidal evaluation, ABUTH; assay type: in vivo, Medic.; conditions: 0.2500 kg/ha
Text: Results of herbicide evaluation are expressed on a rating scale (0-9). The scale is based upon a visual observation of plant stand, vigor, malformation, size, chlorosis and overall plant appearance as compared with a control.
The preemergence herbicidal activity of the test compounds of the present invention is exemplified by the following tests in which the seeds of a variety of monocotyledonous and dicotyledonous plants are separately mixed with potting soil and planted on top of approximately one inch of soil in separate pint cups. After planting, the cups are sprayed with the selected aqueous acetone solution containing test compound in sufficient quantity to provide the equivalent of about 0.0156 to 0.500 kg per hectare of test compound per cup. The treated cups are then placed on greenhouse benches, watered and cared for in accordance with conventional greenhouse procedures. From four to five weeks after treatment, the tests are terminated and each cup is examined and rated according to the rating system provided in Example 185.
The compounds evaluated are reported by compound number given in Example 185.

[2] = system: Ragweed, Common, Ambrosia artemisifolia; assay: Postemergence herbicidal evaluation, AMBEL; assay type: in vivo, L.; conditions: 0.2500 kg/ha
Summary of the method: (§1)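 Rates of about 0.0157–0.500 kg/ha were delivered through a 40 psi spray nozzle to seedlings grown around two weeks, using a 50/50 acetone/water vehicle with 0.5% TWEEN 20. A 0–9 visual score versus control followed 4–5 weeks later.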

[3] = system: Soybean, Williams, Glycine max; assay: Postemergence herbicidal evaluation, GLXMAW; assay type: in vivo, (L.) Merr. cv Williams; conditions: 0.2500 kg/ha
Summary of the method: as §1

CYPIR Rice Flatsedge = assay: Postemergence weed control, flooded paddy (Table IV); assay type: in vivo, Cyperus iria; set-up: scale not given here
Text: (§2) Plastic containers containing weeds which are 3 to 5 cm tall and rice seedlings at the 1.5 to 2.5 leaf stage are flooded with water. The water is maintained at 1.5 to 3 cm above the soil surface for the duration of the experiment. Test compounds are applied as aqueous/acetone mixtures 50/50 v/v directly into the flood water to provide the equivalent of about 0.0313 to 0.500 kg/ha of active ingredient. The treated containers are placed on greenhouse benches and cared for in accordance with conventional greenhouse procedures. Three to four weeks after treatment, the test is terminated and each container is examined and herbicidal effect rated according to the rating system provided in Example 185. The compounds evaluated are reported by compound number given in Example 185.

Galium, Galium aparine = assay: Postemergence herbicidal evaluation, GALAP; assay type: in vivo; conditions: 0.2500 kg/ha
Summary of the method: as §1

[4] = system: Barnyardgrass, Echinochloa crus-galli; assay: Postemergence herbicidal evaluation, ECHCG; assay type: in vivo, (L.) Beau; conditions: 0.2500 kg/ha
Summary of the method: as §1

[5] = system: SAGPY Arrowhead (Pygmaea); assay: Postemergence weed control, flooded paddy (Table IV); assay type: in vivo, Sagittaria pygmaea; set-up: scale not given here
Text: as §2

[6] = system: Lambsquarters, Common, Chenopodium album; assay: Postemergence herbicidal evaluation, CHEAL; assay type: in vivo, L.; conditions: 0.2500 kg/ha
Summary of the method: as §1

[7] = system: ECHORC Watergrass (Calif.); assay: Postemergence weed control, flooded paddy (Table IV); assay type: in vivo, Echinochloa oryzoides; set-up: scale not given here
Text: as §2

[8] = system: Foxtail, Green, Setaria viridis; assay: Postemergence herbicidal evaluation, SETVI; assay type: in vivo, (L.) Beau; conditions: 0.2500 kg/ha
Summary of the method: as §1

ORYSAT Rice, Tebonnet [9] = assay: Tolerance of transplanted rice to post-transplant application (Table III); assay type: in vivo, Oryza sativa; set-up: scale not given here; conditions: crop tolerance
Protocol: The tolerance of transplanted rice to post-transplanted herbicide applications is determined as follows: two ten-day-old rice seedlings (cv. Tebonnet) are transplanted into silt loam soil in 32 oz. plastic containers with a diameter of 10.5 cm and no drainage holes. After transplanting, the containers are flooded and the water level is maintained at 1.5 to 3 cm above the soil surface. Three days after transplanting, the flooded soil surface of the containers is treated with the selected aqueous/acetone 50/50 v/v mixture containing the test compounds to provide the equivalent of about 0.0313 to 0.500 kg/ha of active ingredient. The treated containers are placed on greenhouse benches, watered such that the water level is maintained as stated above, and cared for in accordance with conventional greenhouse procedures. Three to four weeks after treatment, the test is terminated and each container is examined and herbicidal effect rated according to the rating system provided in Example 185. The compounds evaluated are reported by compound number given in Example 185.

ORYSAT Rice, Tebonnet [10] = assay: Rice tolerance, flooded paddy (Table IV); assay type: in vivo, Oryza sativa; set-up: scale not given here; conditions: crop tolerance
Text: as §2

Structure (SMILES)	herbicide rating (0-9) [1]	herbicide rating (0-9) [2]	herbicide rating (0-9) [3]	herbicidal effect rating (CYPIR Rice Flatsedge; 0.1250 kg/ha)	herbicidal effect rating (CYPIR Rice Flatsedge; 0.2500 kg/ha)	herbicidal effect rating (CYPIR Rice Flatsedge; 0.5000 kg/ha)	herbicide rating (0-9) (Galium, Galium aparine)	herbicide rating (0-9) [4]	herbicidal effect rating ([5]; 0.1250 kg/ha)	herbicidal effect rating ([5]; 0.2500 kg/ha)	herbicidal effect rating ([5]; 0.5000 kg/ha)	herbicide rating (0-9) [6]	herbicidal effect rating ([7]; 0.1250 kg/ha)	herbicidal effect rating ([7]; 0.2500 kg/ha)	herbicidal effect rating ([7]; 0.5000 kg/ha)	herbicide rating (0-9) [8]	herbicidal effect rating (ORYSAT Rice, Tebonnet [9]; 0.0625 kg/ha)	herbicidal effect rating (ORYSAT Rice, Tebonnet [9]; 0.1250 kg/ha)	herbicidal effect rating (ORYSAT Rice, Tebonnet [9]; 0.2500 kg/ha)	herbicidal effect rating (ORYSAT Rice, Tebonnet [9]; 0.5000 kg/ha)	further results
Cc1cc(O)c(-c2nsc3ccc(-n4c(=O)cc(C(F)(F)F)n(C)c4=O)cc23)cc1C [Compound 11, 3-[3-(6-Hydroxy-3,4-xylyl)-1,2-benzisothiazol-5-yl]-1-methyl-6-(trifluoromethyl)-2,4(1H,3H)-pyrimidinedione]	9.0	9.0	6.0	9.0	9.0	9.0	6.0	7.0	0.0	4.0	7.0	9.0	2.0	4.0	7.0	8.0	2.0	2.0	3.0	3.0	herbicidal effect rating (ORYSAT Rice, Tebonnet [10]; 0.1250 kg/ha): 0.0; herbicidal effect rating (ORYSAT Rice, Tebonnet [10]; 0.2500 kg/ha): 1.0; herbicidal effect rating (ORYSAT Rice, Tebonnet [10]; 0.5000 kg/ha): 1.0
COC(=O)COc1cc(C)c(C)cc1-c1nsc2ccc(-n3c(=O)cc(C(F)(F)F)n(C)c3=O)cc12 [Compound 12, Methyl {{6-{5-[3,6-dihydro-3-methyl-4-(trifluoromethyl)-2,6-dioxo-1(2H)-pyrimidinyl]-1,2-benzisothiazol-3-yl}-3,4-xylyl}oxy}acetate]	9.0	9.0	9.0	9.0	9.0	9.0	9.0	9.0	0.0	4.0	9.0	9.0	6.0	9.0	9.0	9.0	7.0	7.0	8.0	9.0	herbicidal effect rating (ORYSAT Rice, Tebonnet [9]; 0.0313 kg/ha): 4.0; herbicidal effect rating (ORYSAT Rice, Tebonnet [10]; 0.1250 kg/ha): 7.0; herbicidal effect rating (ORYSAT Rice, Tebonnet [10]; 0.2500 kg/ha): 7.0; herbicidal effect rating (ORYSAT Rice, Tebonnet [10]; 0.5000 kg/ha): 7.0
COC(=O)C(C)Oc1cc(C)c(C)cc1-c1nsc2ccc(-n3c(=O)cc(C(F)(F)F)n(C)c3=O)cc12 (centres unmarked) [Compound 13, Methyl 2-{{6-{5-[3,6-dihydro-3-methyl-4-(trifluoromethyl)-2,6-dioxo-1(2H)-pyrimidinyl]-1,2-benzisothiazol-3-yl}-3,4-xylyl}oxy}propionate]	9.0	9.0	8.5	9.0	9.0	9.0	8.0	9.0	2.0	2.0	9.0	9.0	6.0	8.0	9.0	9.0	6.0	7.0	7.0	9.0	herbicidal effect rating (ORYSAT Rice, Tebonnet [9]; 0.0313 kg/ha): 4.0; herbicidal effect rating (ORYSAT Rice, Tebonnet [10]; 0.1250 kg/ha): 4.0; herbicidal effect rating (ORYSAT Rice, Tebonnet [10]; 0.2500 kg/ha): 4.0; herbicidal effect rating (ORYSAT Rice, Tebonnet [10]; 0.5000 kg/ha): 7.0
